Data from ChEMBL document CHEMBL1201862, “PubChem BioAssay data set” (2004).
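Results reflect a 48-hour exposure of cells in 96-well plates to compound at five concentrations. GI50: concentration for 50% inhibition of growth.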 Activity calls are given as the source filed them. Rule as the data show it: active = GI50 up to about 1.1 µM and inactive = higher.

How the values were obtained:
Test in all cases: NCI tumour cell line growth inhibition, 48 h
M14 = system: M14
SF-295 = system: SF-295
OVCAR-3 = system: OVCAR-3
MDA-MB-435 = system: MDA-MB-435
HCC 2998 = system: HCC 2998
KM12 = system: KM12
786-0 = system: 786-0
SNB-19 = system: SNB-19
UO-31 = system: UO-31
SF-539 = system: SF-539
RXF 393 = system: RXF 393
HCT-116 = system: HCT-116
BT-549 = system: BT-549
PC-3 = system: PC-3
SK-MEL-5 = system: SK-MEL-5
HOP-92 = system: HOP-92
NCI-H226 = system: NCI-H226
SR = system: SR
MDA-MB-231 = system: MDA-MB-231
OVCAR-5 = system: OVCAR-5
SK-MEL-2 = system: SK-MEL-2
OVCAR-8 = system: OVCAR-8
HCT-15 = system: HCT-15
TK-10 = system: TK-10
DU-145 = system: DU-145
HT-29 = system: HT-29
SNB-75 = system: SNB-75
OVCAR-4 = system: OVCAR-4
A498 = system: A498
HOP-62 = system: HOP-62
CAKI-1 = system: CAKI-1
Malme-3M = system: Malme-3M
EKVX = system: EKVX
SN12C = system: SN12C
K562 = system: K562
UACC-257 = system: UACC-257
UACC-62 = system: UACC-62
T47D = system: T47D
U-251 = system: U-251
LOX IMVI = system: LOX IMVI
NCI/ADR-RES = system: NCI/ADR-RES
NCI-H460 = system: NCI-H460
ACHN = system: ACHN
SK-OV-3 = system: SK-OV-3
COLO 205 = system: COLO 205
NCI-H23 = system: NCI-H23
MCF7 = system: MCF7
SK-MEL-28 = system: SK-MEL-28
NCI-H522 = system: NCI-H522
A549 = system: A549
SW-620 = system: SW-620
Hs-578T = system: Hs-578T
HL-60 = system: HL-60
MDA-N = system: MDA-N
SF-268 = system: SF-268
IGROV-1 = system: IGROV-1
RPMI-8226 = system: RPMI-8226
MOLT-4 = system: MOLT-4
CCRF-CEM = system: CCRF-CEM

N/C(=N\Nc1ccc(C(=O)O)cc1)c1cnccn1
GI50 (M14): > 100 µM (inactive)
GI50 (SF-295): > 100 µM (inactive)
GI50 (OVCAR-3): > 100 µM (inactive)
GI50 (MDA-MB-435): > 100 µM (inactive)
GI50 (HCC 2998): > 100 µM (inactive)
GI50 (KM12): > 100 µM (inactive)
GI50 (786-0): > 100 µM (inactive)
GI50 (SNB-19): > 100 µM (inactive)
GI50 (UO-31): > 100 µM (inactive)
GI50 (SF-539): > 100 µM (inactive)
GI50 (RXF 393): > 100 µM (inactive)
GI50 (HCT-116): > 100 µM (inactive)
GI50 (BT-549): > 100 µM (inactive)
GI50 (PC-3): > 100 µM (inactive)
GI50 (SK-MEL-5): > 100 µM (inactive)
GI50 (HOP-92): > 100 µM (inactive)
GI50 (NCI-H226): > 100 µM (inactive)
GI50 (SR): > 100 µM (inactive)
GI50 (MDA-MB-231): > 100 µM (inactive)
GI50 (OVCAR-5): > 100 µM (inactive)
GI50 (SK-MEL-2): > 100 µM (inactive)
GI50 (OVCAR-8): > 100 µM (inactive)
GI50 (HCT-15): > 100 µM
GI50 (TK-10): > 100 µM (inactive)
GI50 (DU-145): > 100 µM (inactive)
GI50 (HT-29): > 100 µM (inactive)
GI50 (SNB-75): > 100 µM (inactive)
GI50 (OVCAR-4): > 100 µM (inactive)
GI50 (A498): > 100 µM (inactive)
GI50 (HOP-62): > 100 µM (inactive)
GI50 (CAKI-1): > 100 µM (inactive)
GI50 (Malme-3M): 37.2 µM (inactive)
GI50 (EKVX): > 100 µM (inactive)
GI50 (SN12C): > 100 µM (inactive)
GI50 (K562): > 100 µM (inactive)
GI50 (UACC-257): > 100 µM (inactive)
GI50 (UACC-62): > 100 µM (inactive)
GI50 (T47D): > 100 µM (inactive)
GI50 (U-251): > 100 µM (inactive)
GI50 (LOX IMVI): > 100 µM (inactive)
GI50 (NCI/ADR-RES): > 100 µM (inactive)
GI50 (NCI-H460): > 100 µM (inactive)
GI50 (ACHN): > 100 µM (inactive)
GI50 (SK-OV-3): > 100 µM (inactive)
GI50 (COLO 205): > 100 µM (inactive)
GI50 (NCI-H23): > 100 µM (inactive)
GI50 (MCF7): > 100 µM (inactive)
GI50 (SK-MEL-28): > 100 µM (inactive)
GI50 (NCI-H522): > 100 µM (inactive)
GI50 (A549): > 100 µM (inactive)
GI50 (SW-620): > 100 µM (inactive)
GI50 (Hs-578T): > 100 µM (inactive)
GI50 (HL-60): < 0.01 µM (active)
GI50 (MDA-N): > 100 µM (inactive)
GI50 (SF-268): > 100 µM (inactive)
GI50 (IGROV-1): > 100 µM (inactive)
GI50 (RPMI-8226): > 100 µM (inactive)
GI50 (MOLT-4): > 100 µM (inactive)

O=[N+]([O-])c1cc2no[n+]([O-])c2cc1N1CCCCC1
GI50 (M14): 2.62 µM (inactive)
GI50 (SF-295): 17.4 µM (inactive)
GI50 (OVCAR-3): 1.92 µM (inactive)
GI50 (MDA-MB-435): 2.87 µM (inactive)
GI50 (HCC 2998): 13.2 µM (inactive)
GI50 (KM12): 13.4 µM (inactive)
GI50 (786-0): 1.29 µM (inactive)
GI50 (SNB-19): 16.3 µM (inactive)
GI50 (UO-31): 2.07 µM (inactive)
GI50 (SF-539): 2.39 µM (inactive)
GI50 (RXF 393): 1.51 µM (inactive)
GI50 (HCT-116): 1.93 µM (inactive)
GI50 (BT-549): 9.29 µM (inactive)
GI50 (PC-3): 2.16 µM (inactive)
GI50 (SK-MEL-5): 15.3 µM (inactive)
GI50 (HOP-92): 2.4 µM (inactive)
GI50 (NCI-H226): 39.8 µM (inactive)
GI50 (SR): 2.94 µM (inactive)
GI50 (MDA-MB-231): 8.47 µM (inactive)
GI50 (OVCAR-5): 8.39 µM (inactive)
GI50 (SK-MEL-2): 7.05 µM (inactive)
GI50 (OVCAR-8): 1.95 µM (inactive)
GI50 (HCT-15): 3.21 µM
GI50 (TK-10): 3.33 µM (inactive)
GI50 (DU-145): 2.45 µM (inactive)
GI50 (HT-29): 1.76 µM (inactive)
GI50 (SNB-75): 2.39 µM (inactive)
GI50 (OVCAR-4): 2.25 µM (inactive)
GI50 (A498): 17.9 µM (inactive)
GI50 (HOP-62): 4.34 µM (inactive)
GI50 (CAKI-1): 3.35 µM (inactive)
GI50 (EKVX): 2.58 µM (inactive)
GI50 (SN12C): 1.99 µM (inactive)
GI50 (K562): 1.43 µM (inactive)
GI50 (UACC-257): 8.24 µM (inactive)
GI50 (UACC-62): 13.4 µM (inactive)
GI50 (T47D): 1.39 µM (inactive)
GI50 (U-251): 3.93 µM (inactive)
GI50 (LOX IMVI): 1.79 µM (inactive)
GI50 (NCI/ADR-RES): 3.15 µM (inactive)
GI50 (NCI-H460): 15.6 µM (inactive)
GI50 (ACHN): 2.58 µM (inactive)
GI50 (SK-OV-3): 14 µM (inactive)
GI50 (COLO 205): 5.37 µM (inactive)
GI50 (NCI-H23): 12.5 µM (inactive)
GI50 (MCF7): 1.95 µM (inactive)
GI50 (SK-MEL-28): 7.28 µM (inactive)
GI50 (NCI-H522): 1.48 µM (inactive)
GI50 (A549): 11.3 µM (inactive)
GI50 (SW-620): 1.97 µM (inactive)
GI50 (CCRF-CEM): 0.38 µM (active)
GI50 (Hs-578T): 25.1 µM (inactive)
GI50 (HL-60): 1.5 µM (inactive)
GI50 (MDA-N): 2.59 µM (inactive)
GI50 (SF-268): 8.18 µM (inactive)
GI50 (IGROV-1): 3.21 µM (inactive)
GI50 (RPMI-8226): 1.28 µM (inactive)
GI50 (MOLT-4): 1.06 µM (active)

N#Cc1ccc(/N=N/N2CCCC2)cc1
GI50 (M14): > 100 µM (inactive)
GI50 (SF-295): > 100 µM (inactive)
GI50 (OVCAR-3): > 100 µM (inactive)
GI50 (MDA-MB-435): > 100 µM (inactive)
GI50 (HCC 2998): > 100 µM (inactive)
GI50 (KM12): > 100 µM (inactive)
GI50 (786-0): > 100 µM (inactive)
GI50 (SNB-19): > 100 µM (inactive)
GI50 (UO-31): 69.8 µM (inactive)
GI50 (SF-539): > 100 µM (inactive)
GI50 (RXF 393): > 100 µM (inactive)
GI50 (HCT-116): > 100 µM (inactive)
GI50 (BT-549): > 100 µM (inactive)
GI50 (PC-3): 83.8 µM (inactive)
GI50 (SK-MEL-5): 86.3 µM (inactive)
GI50 (HOP-92): > 100 µM (inactive)
GI50 (NCI-H226): > 100 µM (inactive)
GI50 (SR): 15.2 µM (inactive)
GI50 (MDA-MB-231): > 100 µM (inactive)
GI50 (OVCAR-5): > 100 µM (inactive)
GI50 (SK-MEL-2): > 100 µM (inactive)
GI50 (OVCAR-8): > 100 µM (inactive)
GI50 (HCT-15): > 100 µM
GI50 (TK-10): 95.9 µM (inactive)
GI50 (DU-145): 20.8 µM (inactive)
GI50 (SNB-75): > 100 µM (inactive)
GI50 (OVCAR-4): 98.9 µM (inactive)
GI50 (A498): 96.8 µM (inactive)
GI50 (HOP-62): > 100 µM (inactive)
GI50 (CAKI-1): > 100 µM (inactive)
GI50 (EKVX): 63.8 µM (inactive)
GI50 (SN12C): > 100 µM (inactive)
GI50 (K562): 91 µM (inactive)
GI50 (UACC-257): > 100 µM (inactive)
GI50 (UACC-62): > 100 µM (inactive)
GI50 (T47D): > 100 µM (inactive)
GI50 (U-251): > 100 µM (inactive)
GI50 (LOX IMVI): > 100 µM (inactive)
GI50 (NCI/ADR-RES): > 100 µM (inactive)
GI50 (NCI-H460): > 100 µM (inactive)
GI50 (ACHN): > 100 µM (inactive)
GI50 (SK-OV-3): > 100 µM (inactive)
GI50 (COLO 205): > 100 µM (inactive)
GI50 (NCI-H23): 95.1 µM (inactive)
GI50 (MCF7): > 100 µM (inactive)
GI50 (NCI-H522): > 100 µM (inactive)
GI50 (SW-620): > 100 µM (inactive)
GI50 (CCRF-CEM): 43.7 µM (inactive)
GI50 (Hs-578T): > 100 µM (inactive)
GI50 (HL-60): 91.2 µM (inactive)
GI50 (MDA-N): > 100 µM (inactive)
GI50 (SF-268): > 100 µM (inactive)
GI50 (IGROV-1): > 100 µM (inactive)
GI50 (RPMI-8226): 40.2 µM (inactive)
GI50 (MOLT-4): 61.2 µM (inactive)
